Literature values, collected in patent publication US20240216476A1, “COMBINATION OF BITTER RECEPTOR AGONIST AND GUT-SIGNALING COMPOUND” (AARDVARK THERAPEUTICS, INC., priority 2021, published 2024).
Like-named read-outs stand apart in the source and are kept apart here. Marks after values point to notes of the source that are not given here.

Columns and labels:
NASH in vivo models = details: cited from earlier work
[1] = cited from earlier work
[2] = cited from earlier work; for Effect on Body Weight (placebo-adjusted change from baseline) / Effect on HbA1c (placebo-adjusted change from baseline) / Effect on Body Weight (placebo-adjusted change from baseline), percent: QD 24-26 weeks; for TG level change from baseline: placebo +19%
[3] = tested on: C57Bl/6J mice fed with high-fat diet; details: vildagliptin 30 mg/kg/day 7 weeks, alogliptin 0.03% (wt/wt) in diet for life span, cited from earlier work
ob/ob mice = details: cited from earlier work
[4] = Male C57BL/6J mice fed high fat diet for 20 weeks, 0.3 mg/kg/day PO for 20 weeks
[5] = C57Bl6/J mice fed MCD diet for 3 weeks, 10 or 30 mg/kg, PO, QD for 3 weeks
[6] = mouse model of diet-induced NASH, 10 mg/kg/day PO for eight weeks
[7] = mouse model of diet-induced NASH, 10 mg/kg/day PO for eight weeks, significantly
[8] = Male C57BL/6J mice fed AMLN diet for 50 weeks, 30 mg/kg, PO, QD for 8 weeks
[9] = Male C57BL/6 mice fed fast food diet for 330 days, treatment started after 240 days, dose unknown
[10] = semaglutide 3 mg, sitagliptin 100 mg, saxagliptin 2.5 mg, vildagliptin 50 mg, alogliptin 12.5 mg, linagliptin 5 mg
[11] = semaglutide 7 mg, sitagliptin 200 mg, saxagliptin 5 mg, vildagliptin 100 mg, alogliptin 25 mg
[12] = sitagliptin 0.004% in diet 12 weeks
[13] = vildagliptin 1.9 mg/kg BID 33 days
[14] = vildagliptin 6.3 mg/kg BID 33 days
[15] = C57BL/6 mice on 60% high fat diet for 36 weeks, 0.3-3 mg/kg/day PO for 24 days
[16] = Male DIAMOND mice fed WDSW for 24 weeks, 30 mg/kg/day PO QD for the last 8 weeks
[17] = Male C57BL/6 mice fed CDAHFD diet for 20 weeks, 3 mg/kg PO for 12 weeks
[18] = C57BL/6 male mice fed MCD diet for 4 weeks, 5 mg/kg/day PO for the last 2 weeks

CC[C@H]1[C@@H](O)[C@@H]2[C@H](CC[C@]3(C)[C@@H]([C@H](C)CCNC(=O)NS(=O)(=O)c4ccc(C(C)(C)C)cc4)CC[C@@H]23)[C@@]2(C)CC[C@@H](O)C[C@@H]12 [EDP-305]
fibrogenic gene expression (NASH in vivo models; Male C57BL/6 mice fed CDAHFD diet for 12 weeks, high dose (30 mg/kg daily PO) from week 6, significant): decreased fibrogenic
fibrosis progression on histopathology (NASH in vivo models; Male C57BL/6 mice fed CDAHFD diet for 12 weeks, high-dose 30 mg/kg daily PO from beginning of week 6): halted fibrosis

CCCCCCCCCCCCCCCC(=O)N[C@@H](CCC(=O)NCCCC[C@H](NC(=O)[C@H](C)NC(=O)[C@H](C)NC(=O)[C@H](CCC(N)=O)NC(=O)CNC(=O)[C@H](CCC(=O)O)NC(=O)[C@H](CC(C)C)NC(=O)[C@H](Cc1ccc(O)cc1)NC(=O)[C@H](CO)NC(=O)[C@H](CO)NC(=O)[C@@H](NC(=O)[C@H](CC(=O)O)NC(=O)[C@H](CO)NC(=O)[C@@H](NC(=O)[C@H](Cc1ccccc1)NC(=O)[C@@H](NC(=O)CNC(=O)[C@H](CCC(=O)O)NC(=O)[C@H](C)NC(=O)[C@@H](N)Cc1cnc[nH]1)[C@@H](C)O)[C@@H](C)O)C(C)C)C(=O)N[C@@H](CCC(=O)O)C(=O)N[C@@H](Cc1ccccc1)C(=O)N[C@H](C(=O)N[C@@H](C)C(=O)N[C@@H](Cc1c[nH]c2ccccc12)C(=O)N[C@@H](CC(C)C)C(=O)N[C@H](C(=O)N[C@@H](CCCNC(=N)N)C(=O)NCC(=O)N[C@@H](CCCNC(=N)N)C(=O)NCC(=O)O)C(C)C)[C@@H](C)CC)C(=O)O [Liraglutide]
Incidence of Hypoglycemic Episodes for Combination with Metformin (vs. Placebo) ([1]; prescribing information): 3.6%
Incidence of Hypoglycemic Episodes for Combination with a Sulfonylurea (vs. Placebo) ([1]; prescribing information, lixisenatide: add-on to a sulfonylurea with or without metformin): 7.5%

C[C@H](NC(=O)C(=O)Nc1ccccc1C(C)(C)C)C(=O)N[C@@H](CC(=O)O)C(=O)COc1c(F)c(F)cc(F)c1F [Emricasan]
inflammation, ballooning, and fibrosis on histopathology (NASH in vivo models; [4]): Improved
serum levels of glucose, HOMA-IR, cholesterol, ALT, and AST (NASH in vivo models; [4]): Decreased serum levels

O=C(O)CCCc1cc2cc(Cl)ccc2n1S(=O)(=O)c1ccc2ncsc2c1 [Lanifibranor (IVA337)]
induction of profibrotic and fibrotic genes (NASH in vivo models; [5]): inhibited the induction
plasma alanine aminotransferase levels (NASH in vivo models; [5]): significantly reduced
steatosis and inflammation on histopathology (NASH in vivo models; [5]): IVA337 prevented

Cc1cc(OCP2(=O)OCC[C@@H](c3cccc(Cl)c3)O2)cc(C)c1Cc1ccc(O)c(C(C)C)c1 (some centres unmarked) [VK2809]
NAS score, mean improvement (NASH in vivo models; [6]): (a 40% mean
all subcomponents of NAS (inflammation, ballooning, and steatosis) (NASH in vivo models; [6]): Improvements in all
liver contents of triglyceride, cholesterol, collagen, and hydroxyproline (NASH in vivo models; [7]): improved liver contents
liver fibrosis on histopathology (NASH in vivo models; [7]): improved NAS score
plasma triglycerides and cholesterol (NASH in vivo models; [7]): reduced plasma

CC[C@H]1[C@@H](O)[C@@H]2[C@H](CC[C@]3(C)[C@@H]([C@H](C)CCC(=O)O)CC[C@@H]23)[C@@]2(C)CC[C@@H](O)C[C@@H]12 [Obeticholic acid (INT-747)]
histopathological scores of hepatic steatosis and inflammation (NASH in vivo models; [8]): Significantly reduced
liver weight (NASH in vivo models; [8]): Significantly reduced
total liver TG and total cholesterol, collagen 1a1, and galectin-3 content (NASH in vivo models; [8]): Significantly reduced
plasma total cholesterol (NASH in vivo models; Male C57BL/6J mice fed AMLN diet for 50 weeks, 30 mg/kg, PO, QD for 8 weeks, significant): reduced plasma total

Cc1cc(F)c(C(=O)Nc2cccc(-c3nncn3C(C)C)n2)cc1-n1cnc(C2CC2)c1 [Selonsertib (GS-4997)]
liver steatosis, fibrosis, and insulin resistance (NASH in vivo models; [9]): Significantly reduced
reduction of liver cholesterol (NASH in vivo models; [9]): 45%
reduction of serum bile acid cholate (NASH in vivo models; [9]): cholate (91% reduction)
reduction of serum cholesterol (NASH in vivo models; [9]): 14%

O=C(O)c1cc(F)c2nc(N3[C@@H]4CC[C@H]3C[C@@H](OCc3c(-c5ccccc5OC(F)(F)F)noc3C3CC3)C4)sc2c1 [Tropifexor]
inflammation, steatosis, and fibrosis (NASH in vivo models; AMLN model (C57BL/6J mice on AMLN diet for 30 weeks), 0.03-0.9 mg/kg for the last 4 weeks): tropifexor reduced
mRNA levels of fibrogenic markers and hepatic inflammation cell populations (NASH in vivo models; AMLN model (C57BL/6J mice), 0.03-0.9 mg/kg for the last 4 weeks): dramatically reduced
ALT/AST levels relative to controls (NASH in vivo models; AMLN model (C57BL/6J mice), 0.03-0.9 mg/kg for the last 4 weeks, dose-dependent): reduction in ALT/AST

N#C[C@@H]1CCCN1C(=O)CNC12CC3CC(CC(O)(C3)C1)C2 [Vildagliptin]
Effect on Body Weight (placebo-adjusted change from baseline) [2, 10]: 50 mg: +0.6 kg
Effect on HbA1c (placebo-adjusted change from baseline) [2, 10]: 50 mg: −0.7%
Effect on Body Weight (placebo-adjusted change from baseline), percent ([2]; semaglutide 3 mg, sitagliptin 100 mg, saxagliptin 2.5 mg, vildagliptin 50 mg): (+0.65%)
Effect on Body Weight (placebo-adjusted change from baseline) [2, 11]: 100 mg: +1.2 kg
Effect on HbA1c (placebo-adjusted change from baseline) [2, 11]: 100 mg: −1.1%
Effect on Body Weight (placebo-adjusted change from baseline), percent ([2]; semaglutide 7 mg, sitagliptin 200 mg, saxagliptin 5 mg, vildagliptin 100 mg): (+1.3%)
TG level change from baseline ([2]; vildagliptin 50 mg QD 24 weeks): from baseline: +1%
TG level change from baseline ([2]; vildagliptin 100 mg QD 24 weeks): (50 mg) ^$ and +5%
Other lipid parameters, change ([2]; vildagliptin, all treatment groups, no significant between-treatment differences): changed by <3%
Control-adjusted Percent Change in Body Weight Gain [3, 12]: +11%
Control-adjusted Percent Change in Fasting Blood Glucose [3, 12]: −15.1%*
Control-adjusted Percent Change in Insulin Level [3, 12]: −33.2%
Control-adjusted Percent Change in Lipid Levels: TC [3]: −51.5% in TC*
Control-adjusted Percent Change in Lipid Levels: TG [3]: −23.6% in TG**
Control-adjusted Percent Change in Fasting Blood Glucose (ob/ob mice; [13]): −29.4%
Control-adjusted Percent Change in TG Level (ob/ob mice; [13]): −29.3%
Control-adjusted Percent Change in Fasting Blood Glucose (ob/ob mice; [14]): −40.2%
Control-adjusted Percent Change in TG Level (ob/ob mice; [14]): −19.9%

Lixisenatide
Incidence of Hypoglycemic Episodes for Combination with Insulin (vs. Placebo) ([1]; in vivo): 28%*
Incidence of Hypoglycemic Episodes for Combination with Metformin (vs. Placebo) ([1]; in vivo): 3%
Incidence of Hypoglycemic Episodes for Combination with a Sulfonylurea (vs. Placebo) ([1]; in vivo): 15%**
Incidence of Hypoglycemic Episodes for Monotherapy at the Highest Dose (vs. Placebo) ([1]; in vivo): 2%

CC(C)c1cc(Oc2c(Cl)cc(-n3nc(C#N)c(=O)[nH]c3=O)cc2Cl)n[nH]c1=O [Resmetirom (MGL-3196)]
insulin sensitivity (NASH in vivo models; [15]): Improved insulin
reduction of serum ALT (NASH in vivo models; [15]): (46%), free fatty acids
reduction of serum cholesterol (NASH in vivo models; [15]): (67%).
reduction of serum free fatty acids (NASH in vivo models; [15]): (30%), and cholesterol
steatosis, fibrosis or inflammation in treated livers (NASH in vivo models; [15]): No detectable

COc1cccc(C(=O)COc2ccc(CC3SC(=O)[N-]C3=O)cc2)c1.[K+] (centres unmarked) [Azemiglitazone (MSDC 0602K)]
NASH CRN fibrosis score (NASH in vivo models; [16]): treated group was 0.
ballooning (NASH in vivo models; [16]): significantly decreased
mice progressed from simple steatosis to NASH compared to the control group (NASH in vivo models; [16]): Significantly fewer
serum levels of fasting insulin, and AST and ALT (NASH in vivo models; [16]): dramatically reduced
steatosis-activity-fibrosis (SAF) score (NASH in vivo models; Male DIAMOND mice fed WDSW for 24 weeks, 30 mg/kg/day PO QD for the last 8 weeks, significantly, reduced to the level of baseline controls): lower in the MSDC-

CCCCOCCOc1ccc(-c2ccc3c(c2)/C=C(/C(=O)Nc2ccc([S@@+]([O-])Cc4cncn4CCC)cc2)CCCN3CC(C)C)cc1 [Cenicriviroc]
intrahepatic accumulation of inflammatory macrophages (NASH in vivo models; Male C57BL/6N mice fed CDAHFD, IP, 30 mg/kg/day for 4 or 14 weeks): Inhibited intrahepatic
frequency of intrahepatic anti-inflammatory macrophages (NASH in vivo models; Male C57BL/6N mice fed CDAHFD, IP, 30 mg/kg/day for 14 weeks): weeks, and increased
fibrosis on histopathology (NASH in vivo models; Male C57BL/6N mice fed CDAHFD, IP, only with 30 mg/kg/day for 14 weeks): Significantly improved

CCO[C@@H](Cc1ccc(OCCn2c(C)ccc2-c2ccc(SC)cc2)cc1)C(=O)O [Saroglitazar]
hepatic steatosis (NASH in vivo models; [17]): induced reversal of
liver TNFα levels and hepatic fibrogenic and inflammatory gene expression (NASH in vivo models; [17]): reduced liver TNFα
reduction of serum ALT (NASH in vivo models; [17]): including ALT (60%),
reduction of serum AST (NASH in vivo models; [17]): AST (43%), and MCP1
reduction of serum MCP1 (NASH in vivo models; [17]): (45%). Liver lipid (TG)
vacuolation and ballooning (NASH in vivo models; [17]): reduced or no

CSc1ccc(C(=O)/C=C/c2cc(C)c(OC(C)(C)C(=O)O)c(C)c2)cc1 [Elafibranor (GFT505)]
histopathological scores of hepatic steatosis and inflammation, as well as fibrosis severity (NASH in vivo models; [8]): Significantly reduced
liver TG, total cholesterol contents, or plasma levels of ALT, AST, TG or total cholesterol (NASH in vivo models; [8]): No effects on liver TG,

CCCCCCCCCCCCCCCCCCCC(=O)N[C@H]1CC[C@@]2(C)[C@@H](C1)C[C@@H](O)[C@@H]1[C@@H]2C[C@H](O)[C@]2(C)[C@@H]([C@H](C)CCC(=O)O)CC[C@@H]12.CNC[C@H](O)[C@@H](O)[C@H](O)[C@H](O)CO [Aramchol]
ALT, AST, or TG (NASH in vivo models; [18]): No effects on ALT,
features of steatohepatitis and fibrosis (NASH in vivo models; [18]): Reduced features of
protein expression of COL1A1 in the liver (NASH in vivo models; [18]): decreased protein
